Ends that are not written are not given here.

Data set [1] concerns HaCaT cell line. Description: Cytotoxicity (MTT) of oligopeptide in HaCaT human keratinocytes. The data set is classed as cell-based. To be noted: 50 ppm and 100 ppm oligopeptide. As to the method: (§1) In order to evaluate the stability of the oligopeptide prepared in Preparation Example 1 when applied to humans, irritation of the skin and scalp due to cytotoxicity was measured using a HaCaT cell line as human keratinocytes.
(§2) The HaCaT cell line used therefor was incubated at 37° C. in a […] incubator. When the extent of incubation arrived at 85 to 90% of the area of a culture vessel, the cells were detached with trypsin, counted, and subjected to subculture at 5×10^3 cells/cm^2.
(§3) For cell culture, a Dulbecco's Modified Eagle Medium (DMEM, GIBCO, Cat. No. 11995-065, USA), containing 10% fetal bovine serum (FBS, GIBCO, Cat. No., 26140-079, USA), 100 U/ml penicillin, and 100 μg/ml streptomycin, was used. For subculture, a 75 T-flask (NUNC, Cat. No. 156499, Denmark) was used, and the cytotoxicity test was carried out using a 24-well plate (NUNC, Cat. No. 142475, Denmark).
(§4) The human keratinocytes were counted at 5×10^3 cells/well each and then aliquoted into the 24-well plate using a hemocytometer. These cells were incubated in DMEM containing 10% FBS for 48 hr. When the extent of incubation arrived at 40 to 50% of the surface area of the culture vessel, the medium was replaced with FBS-free DMEM containing each of 50 ppm oligopeptide and 100 ppm oligopeptide, and culture was further conducted for 24 hr. Thereafter, 50 μl of a 3-(4,5-dimethylthiazol-2-yl)-2,5-diphenyl tetrazolium bromide (MTT, Sigma M5655, USA) solution (2.5 mg/ml) was added and culture was further performed for 3 hr. Then, the cell culture broth was discarded, 200 μl of dimethyl sulfoxide (DMSO, Sigma D2650, USA) was added to each well and shaken, 100 μl thereof was transferred into a 96-well plate, and the absorbance thereof was measured at 570 nm using an Enzyme-Linked Immunosorbent Assay (ELISA).
(§5) The cytotoxicity was represented as a percentage based on the absorbance intensity of a control using pure water.

Experiment in data set [2]: as above
The data set is classed as cell-based. To be noted: 24 hr, MTT absorbance 570 nm as percentage of pure water control. As to the method: as §1, §2, §3, §4, §5

As for “GQQKRSDRLNLSR-OH [Oligopeptide, Gly-Gln-Gln-Lys-Arg-Ser-Asp-Arg-Leu-Asn-Leu-Ser-Arg]”, in data set [1], the “cytotoxicity compared to the control” value is recorded as “no cytotoxicity”. For the same substance, the viability was determined as 93% in data set [2] (50 ppm oligopeptide) and 81% in data set [2] (100 ppm oligopeptide).

One may read the viability as a per cent measure of how many cells are alive, often set against a control. A lower viability goes with a greater loss of cells.

Values taken from US20170340544A1, “COSMETIC COMPOSITION FOR IMPROVING HEALTH OF SCALP AND METHOD OF PREPARING THE SAME” (OLIPASS Cosmeceuticals Company, priority 2016, published 2017).
